# Legend:
# Leukemia L-1210 cells [1] = assay: Antitumor activity against leukemia L-1210 in CDF1 mice, 60-day observation (Test Example 1); assay type: in vivo, mouse; conditions: for % Increase in life-span (T/C, %): 9 days, 60 d observation, '>' = at least one of four mice survived 60 days
# Procedure: Thus, to evaluate the antitumor effects of the new compounds of this invention against experimental tumors in animals, CDF1 mice (four mice per group) were intraperitoneally transplanted with cells of Leukemia L-1210 at an amount of 1×10^5 cells/mouse. Since an elapsed time of 24 hours from the transplantation of the leukemia cells, a test compound according to this invention was administered intraperitoneally to the mice under test for 9 consecutive days once per day. […] While, mice of the control group (the untreated group) were administered with only physiological saline after the transplantation of the L-1210 cells. During the observation period, the numbers of the surviving mice in the treated group and in the control group were counted, and the mean survival days of mice in the treated group and in the control group were then calculated. From the mean survival day (C) of the untreated mice of the control group and the mean survival day (T) of the treated mice of the treated group, there were evaluated percentages (%) of the increase in the life-span of the treated mice, as T/C %. For a comparison purpose, 7-O-(2,6-dideoxy-2-fluoro-α-L-talopyranosyl)daunomycinone (abbreviation: FT-DM); 7-O-(2,6-dideoxy-2-fluoro-α-L-talopyranosyl)adriamycinone (abbreviation: FT-ADM); daunomycin and adriamycin were also tested in the same manner as above. Incidentally, the mean survival day of mice of the control group (the untreated group) was amounting to 8 to 9 days, and the mean survival day of mice of the comparative groups having received the administration of adriamycin was varying dependently on the dosage of adriamycin.
# Leukemia L-1210 cells [2] = assay: Antitumor activity against leukemia L-1210 in CDF1 mice, 30-day observation (Test Example 2); assay type: in vivo, mouse; conditions: 9 days, 30 d observation, '>' = at least one of four mice survived 30 days
# Procedure: Since an elapsed time of 24 hours from the transplantation of the leukemia cells, Compound (c) of this invention was administered intraperitoneally to the mice under test for 9 consecutive days once per day. […] While, mice of the control group (the untreated group) were administered with only physiological saline after the transplantation of the L-1210 cells. During the observation period, the numbers of the surviving mice in the treated group and the control group were counted, and the mean survival days of mice in the treated group and in the control group were then calculated. From the mean survival day (C) of the untreated mice of the control group and the mean survival day (T) of the treated mice of the treated group, there were evaluated percentages (%) of the increase in the life-span of the treated mice as T/C %. For a comparison purpose, adriamycin was also tested in the same manner as above.
# P388 cells = assay: In vitro inhibition of growth of P388 cells, 72 hours (Test Example 3); assay type: cell-based, mouse; conditions: Mus musculus, P388, 72 h
# Procedure: (§1) Furthermore, in order to estimate the antitumor activities of Compound (a) and Compound (b) of this invention represented by the general formula (I), as well as the adriamycinone derivative represented by the formula (II) (namely, Compound (c) of this invention), some "in vitro" tests for inhibiting proliferation of cancer cells were conducted as shown below.
# (§2) The above-mentioned Compound (a), Compound (b) or Compound (c) according to this invention were added at varying concentrations to mouse leukemia, P388 cells or adriamycin-resistant P388 cells (P388/ADR) which had been incubated in test tubes containing an appropriate culture medium. The incubation of the tumor cells were then continued for 72 hours from the addition of the test compound, and determination was made to evaluate such concentrations of the test compound which could inhibit the growth of the leukemia cells by 50% (namely, IC50' ng/ml). FT-DM, FT-ADM and adriamycin (as the hydrochloride) were used as comparative compounds and were tested in the same manner as above.
# [3] = system: adriamycin-resistant P388 cells (P388/ADR); assay: In vitro inhibition of growth of adriamycin-resistant P388 cells, 72 hours (Test Example 3); assay type: cell-based, mouse; conditions: Mus musculus; P388/ADR, 72 hours
# Procedure: as §1, §2
# [4] = clinical treatments, patients; cited from earlier work
smiles,measurement,setting,value
"COc1cccc2c1C(=O)c1c(O)c3c(c(O)c1C2=O)C[C@@](O)(C(=O)CO)C[C@@H]3O[C@H]1C[C@H](N)[C@H](O)[C@H](C)O1 [Adriamycin, adriamycin]","% Increase in life-span (T/C, %)",Leukemia L-1210 cells [1]; 0.15 mg/kg/day i.p.,140%
same,"% Increase in life-span (T/C, %)",Leukemia L-1210 cells [1]; 0.3 mg/kg/day i.p.,132%
same,"% Increase in life-span (T/C, %)",Leukemia L-1210 cells [1]; 0.6 mg/kg/day i.p.,208%
same,"% Increase in life-span (T/C, %)",Leukemia L-1210 cells [1]; 1.25 mg/kg/day i.p.,330%
same,"% Increase in life-span (T/C, %)",Leukemia L-1210 cells [1]; 2.5 mg/kg/day i.p.,273%
same,"percentages (%) of increase in life-span (T/C, %)","Leukemia L-1210 cells [1]; 2.5 mg/kg/day to 5 mg/kg/day, about / approximately at maximum",approximately 330%
same,"% Increase in life-span (T/C, %)",Leukemia L-1210 cells [1]; 5 mg/kg/day i.p.,177%
same,development of toxicity (in words),"Leukemia L-1210 cells [1]; 2.5 to 5 mg/kg/day for daunomycin, adriamycin, 0.3 to 1.25 mg/kg/day for Compound (b), low dosages for formula (I)",accompanied by development of toxicity
same,"% Increase in life-span (T/C, %)",Leukemia L-1210 cells [2]; 0.15 mg/kg/day i.p.,140%
same,"% Increase in life-span (T/C, %)",Leukemia L-1210 cells [2]; 0.3 mg/kg/day i.p.,132%
same,"% Increase in life-span (T/C, %)",Leukemia L-1210 cells [2]; 0.6 mg/kg/day i.p.,208%
same,"% Increase in life-span (T/C, %)",Leukemia L-1210 cells [2]; 1.25 mg/kg/day i.p.,330%
same,"% Increase in life-span (T/C, %)",Leukemia L-1210 cells [2]; 2.5 mg/kg/day i.p.,273%
same,"% Increase in life-span (T/C, %)",Leukemia L-1210 cells [2]; 5 mg/kg/day i.p.,177%
same,IC50,P388 cells,0.017 µg/mL
same,IC50,[3],0.51 µg/mL
same,serious side-effects (in words),[4],"serious side-effects such as leukocytopenia, alopecia, myocardiopathy and others"

# Reference: patent US5719130A, “Anthracycline derivative having a trifluoromethylated sugar” (Zaidan Hojin Biseibutsu Kagaku Kenkyu Kai, priority 1994, dated 1998)
